Tests used:
PKBa = PKBa (Homo sapiens, UniProt P31749); test: Kinase profiling PKBa; assay type: biochemical
Text: (§1) Any value less that 25 is considered to be highly significant inhibition.

PDK1 = target: T1, PDK1 (Homo sapiens, UniProt O15530); test: Kinase profiling PDK1; assay type: biochemical
T1 sequence (O15530 1-556): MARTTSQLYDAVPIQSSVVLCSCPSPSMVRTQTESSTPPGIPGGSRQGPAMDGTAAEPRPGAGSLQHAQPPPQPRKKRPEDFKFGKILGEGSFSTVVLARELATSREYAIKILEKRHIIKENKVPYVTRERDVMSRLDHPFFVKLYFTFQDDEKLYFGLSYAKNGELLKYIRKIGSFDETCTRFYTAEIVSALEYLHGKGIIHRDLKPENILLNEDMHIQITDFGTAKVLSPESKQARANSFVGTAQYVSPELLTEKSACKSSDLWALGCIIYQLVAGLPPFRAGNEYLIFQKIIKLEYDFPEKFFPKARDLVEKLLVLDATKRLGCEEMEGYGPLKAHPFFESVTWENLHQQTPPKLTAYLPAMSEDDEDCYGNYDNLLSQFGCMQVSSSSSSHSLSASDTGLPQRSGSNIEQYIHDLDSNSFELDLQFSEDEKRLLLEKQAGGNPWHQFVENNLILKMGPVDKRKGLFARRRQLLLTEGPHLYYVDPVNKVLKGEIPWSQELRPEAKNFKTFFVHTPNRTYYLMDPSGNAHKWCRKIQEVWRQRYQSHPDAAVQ
Text: as §1

PLK1 = PLK1 (Homo sapiens, UniProt P53350); test: Kinase profiling PLK1; assay type: biochemical
Sequence of PLK1 (P53350 whole entry, species assumed): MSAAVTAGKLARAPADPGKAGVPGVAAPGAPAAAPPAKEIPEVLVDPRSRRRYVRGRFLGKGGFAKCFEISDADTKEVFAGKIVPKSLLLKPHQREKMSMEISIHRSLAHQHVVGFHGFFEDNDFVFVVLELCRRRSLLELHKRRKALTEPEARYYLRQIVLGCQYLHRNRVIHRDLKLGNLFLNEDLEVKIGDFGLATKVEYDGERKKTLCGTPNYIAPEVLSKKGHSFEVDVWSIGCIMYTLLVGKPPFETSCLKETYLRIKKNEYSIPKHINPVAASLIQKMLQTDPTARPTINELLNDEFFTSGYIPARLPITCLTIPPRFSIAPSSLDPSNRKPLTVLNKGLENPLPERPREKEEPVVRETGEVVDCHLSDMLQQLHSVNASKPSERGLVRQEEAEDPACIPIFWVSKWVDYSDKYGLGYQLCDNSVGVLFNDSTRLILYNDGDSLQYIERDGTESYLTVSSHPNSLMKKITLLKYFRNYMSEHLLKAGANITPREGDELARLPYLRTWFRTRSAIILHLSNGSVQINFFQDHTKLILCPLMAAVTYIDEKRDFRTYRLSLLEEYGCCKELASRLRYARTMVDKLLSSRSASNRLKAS
Text: as §1

S6K1 = S6K1 (Homo sapiens, UniProt P23443); test: Kinase profiling S6K1; assay type: biochemical
Text: as §1

PKA = PKA (Homo sapiens, UniProt P17612); test: Kinase profiling PKA; assay type: biochemical
Text: as §1

RSK1 = RSK1 (Homo sapiens, UniProt Q15418); test: Kinase profiling RSK1; assay type: biochemical
Text: as §1

PKCa = PKCa (Homo sapiens, UniProt P17252); test: Kinase profiling PKCa; assay type: biochemical
Text: as §1

EPH-A2 = EPH-A2 (Homo sapiens, UniProt P29317); test: Kinase profiling EPH-A2; assay type: biochemical
Text: as §1

PRK2 = PRK2 (Homo sapiens, UniProt Q16513); test: Kinase profiling PRK2; assay type: biochemical
Text: as §1

JNK1 = JNK1 (Homo sapiens, UniProt P45983); test: Kinase profiling JNK1; assay type: biochemical
Sequence of JNK1 (P45983 whole entry, species assumed): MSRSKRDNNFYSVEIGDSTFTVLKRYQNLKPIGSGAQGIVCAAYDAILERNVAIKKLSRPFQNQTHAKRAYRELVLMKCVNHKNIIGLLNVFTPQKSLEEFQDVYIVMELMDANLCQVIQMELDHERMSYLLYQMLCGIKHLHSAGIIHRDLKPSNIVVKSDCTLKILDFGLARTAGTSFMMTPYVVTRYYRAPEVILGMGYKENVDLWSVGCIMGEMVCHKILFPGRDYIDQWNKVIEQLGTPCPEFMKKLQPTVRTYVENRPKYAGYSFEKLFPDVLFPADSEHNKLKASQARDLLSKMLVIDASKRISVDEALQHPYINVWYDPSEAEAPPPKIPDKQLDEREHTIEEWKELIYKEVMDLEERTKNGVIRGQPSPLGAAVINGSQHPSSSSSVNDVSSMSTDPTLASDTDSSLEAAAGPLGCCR
Text: as §1

RIPK2 = RIPK2 (Homo sapiens, UniProt O43353); test: Kinase profiling RIPK2; assay type: biochemical
Text: as §1

BTK = BTK (Homo sapiens, UniProt Q06187); test: Kinase profiling BTK; assay type: biochemical
Text: as §1

IGF-1R = IGF-1R (Homo sapiens, UniProt P08069); test: Kinase profiling IGF-1R; assay type: biochemical
Text: as §1

ROCK 2 = ROCK 2 (Homo sapiens, UniProt O75116); test: Kinase profiling ROCK 2; assay type: biochemical
Sequence of ROCK 2 (O75116 whole entry, species assumed): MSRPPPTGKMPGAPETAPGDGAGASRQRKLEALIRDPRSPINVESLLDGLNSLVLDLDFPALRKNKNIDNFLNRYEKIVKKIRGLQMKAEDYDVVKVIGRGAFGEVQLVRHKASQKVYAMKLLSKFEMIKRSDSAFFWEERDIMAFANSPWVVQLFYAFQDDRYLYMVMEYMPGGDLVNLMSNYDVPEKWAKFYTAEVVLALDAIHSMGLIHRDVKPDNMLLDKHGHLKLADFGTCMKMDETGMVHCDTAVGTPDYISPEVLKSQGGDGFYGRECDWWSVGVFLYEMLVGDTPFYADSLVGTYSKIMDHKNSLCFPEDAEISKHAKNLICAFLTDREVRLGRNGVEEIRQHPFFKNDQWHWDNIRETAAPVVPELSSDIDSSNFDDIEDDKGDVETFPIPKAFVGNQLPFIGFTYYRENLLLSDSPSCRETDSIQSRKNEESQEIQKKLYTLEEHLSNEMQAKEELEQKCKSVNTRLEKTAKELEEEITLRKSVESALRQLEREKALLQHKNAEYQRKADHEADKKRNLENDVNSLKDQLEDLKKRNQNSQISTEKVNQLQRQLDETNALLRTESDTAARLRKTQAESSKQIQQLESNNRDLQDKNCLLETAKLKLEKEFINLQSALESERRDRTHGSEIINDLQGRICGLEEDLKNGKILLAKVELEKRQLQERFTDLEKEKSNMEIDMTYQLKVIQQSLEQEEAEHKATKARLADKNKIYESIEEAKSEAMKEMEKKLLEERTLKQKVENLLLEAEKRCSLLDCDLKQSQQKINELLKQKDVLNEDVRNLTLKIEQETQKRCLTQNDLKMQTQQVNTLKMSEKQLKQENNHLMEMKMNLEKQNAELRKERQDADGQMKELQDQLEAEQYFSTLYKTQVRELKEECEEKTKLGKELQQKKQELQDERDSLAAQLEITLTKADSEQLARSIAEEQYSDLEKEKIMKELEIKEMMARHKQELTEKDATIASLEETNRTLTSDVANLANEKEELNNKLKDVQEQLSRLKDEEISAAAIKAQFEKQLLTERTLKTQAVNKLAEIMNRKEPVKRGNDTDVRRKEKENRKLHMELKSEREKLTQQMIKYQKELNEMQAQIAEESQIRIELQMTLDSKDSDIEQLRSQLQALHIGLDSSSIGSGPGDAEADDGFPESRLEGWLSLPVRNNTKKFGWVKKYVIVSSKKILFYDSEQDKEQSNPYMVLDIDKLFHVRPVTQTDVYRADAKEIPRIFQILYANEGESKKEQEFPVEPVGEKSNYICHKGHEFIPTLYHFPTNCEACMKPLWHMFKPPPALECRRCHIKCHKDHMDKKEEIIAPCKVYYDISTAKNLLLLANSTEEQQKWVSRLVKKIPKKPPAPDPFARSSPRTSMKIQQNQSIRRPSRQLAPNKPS
Text: as §1

PIM1 = PIM1 (Homo sapiens, UniProt P11309); test: Kinase profiling PIM1; assay type: biochemical
Text: as §1

HER4 = HER4 (Homo sapiens, UniProt Q15303); test: Kinase profiling HER4; assay type: biochemical
Sequence of HER4 (Q15303 26-1308, species assumed): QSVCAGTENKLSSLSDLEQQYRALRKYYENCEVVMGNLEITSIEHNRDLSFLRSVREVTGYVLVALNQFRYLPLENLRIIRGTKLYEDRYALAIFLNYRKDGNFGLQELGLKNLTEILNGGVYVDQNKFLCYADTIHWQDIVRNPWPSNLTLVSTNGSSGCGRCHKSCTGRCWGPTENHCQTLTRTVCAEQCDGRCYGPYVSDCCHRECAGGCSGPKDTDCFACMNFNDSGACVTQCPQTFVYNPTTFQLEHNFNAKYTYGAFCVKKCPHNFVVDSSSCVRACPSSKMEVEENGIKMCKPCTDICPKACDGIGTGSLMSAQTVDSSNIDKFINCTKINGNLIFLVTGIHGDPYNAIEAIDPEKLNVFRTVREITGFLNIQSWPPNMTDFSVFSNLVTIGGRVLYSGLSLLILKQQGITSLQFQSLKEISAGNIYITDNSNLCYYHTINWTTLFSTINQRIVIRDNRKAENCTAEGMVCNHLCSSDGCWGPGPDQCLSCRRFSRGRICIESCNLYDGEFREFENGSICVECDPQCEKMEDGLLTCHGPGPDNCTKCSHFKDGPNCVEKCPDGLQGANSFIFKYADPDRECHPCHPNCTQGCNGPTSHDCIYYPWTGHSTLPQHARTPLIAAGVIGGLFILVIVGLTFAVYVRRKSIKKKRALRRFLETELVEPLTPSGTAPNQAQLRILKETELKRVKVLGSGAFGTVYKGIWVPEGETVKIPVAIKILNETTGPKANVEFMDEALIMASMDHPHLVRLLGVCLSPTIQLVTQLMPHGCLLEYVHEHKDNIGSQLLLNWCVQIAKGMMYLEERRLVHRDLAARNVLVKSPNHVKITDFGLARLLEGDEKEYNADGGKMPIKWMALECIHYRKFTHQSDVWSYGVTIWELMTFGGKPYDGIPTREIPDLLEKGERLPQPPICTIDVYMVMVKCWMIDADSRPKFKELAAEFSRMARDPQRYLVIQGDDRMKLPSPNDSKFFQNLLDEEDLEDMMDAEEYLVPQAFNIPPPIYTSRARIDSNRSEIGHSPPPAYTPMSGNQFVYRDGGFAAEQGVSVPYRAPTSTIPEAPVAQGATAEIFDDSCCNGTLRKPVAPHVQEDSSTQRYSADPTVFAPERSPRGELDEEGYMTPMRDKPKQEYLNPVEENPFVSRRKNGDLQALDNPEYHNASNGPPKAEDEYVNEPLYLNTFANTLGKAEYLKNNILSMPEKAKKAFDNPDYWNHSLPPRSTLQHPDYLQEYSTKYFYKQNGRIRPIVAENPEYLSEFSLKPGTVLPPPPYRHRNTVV
Text: as §1

CAMKKb = CAMKKb (Homo sapiens, UniProt Q96RR4); test: Kinase profiling CAMKKb; assay type: biochemical
Sequence of CAMKKb (Q96RR4 whole entry, species assumed): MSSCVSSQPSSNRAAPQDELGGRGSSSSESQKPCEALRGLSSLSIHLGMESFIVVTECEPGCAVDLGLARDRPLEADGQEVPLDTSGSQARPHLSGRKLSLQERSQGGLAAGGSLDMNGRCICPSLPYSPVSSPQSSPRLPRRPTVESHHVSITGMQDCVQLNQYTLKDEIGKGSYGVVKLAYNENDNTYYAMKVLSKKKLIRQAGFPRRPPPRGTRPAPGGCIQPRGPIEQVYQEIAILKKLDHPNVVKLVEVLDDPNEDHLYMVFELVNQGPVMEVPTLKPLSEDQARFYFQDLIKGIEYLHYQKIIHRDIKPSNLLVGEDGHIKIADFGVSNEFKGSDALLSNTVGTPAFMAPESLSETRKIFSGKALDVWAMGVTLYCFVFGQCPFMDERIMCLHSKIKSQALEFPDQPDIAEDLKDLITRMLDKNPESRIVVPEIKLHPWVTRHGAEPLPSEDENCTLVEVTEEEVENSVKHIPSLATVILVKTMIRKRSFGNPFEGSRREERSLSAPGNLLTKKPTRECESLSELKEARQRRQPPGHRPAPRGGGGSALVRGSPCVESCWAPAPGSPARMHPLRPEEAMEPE
Text: as §1

AMPK (hum) = test: Kinase profiling AMPK (hum); assay type: biochemical, human
Text: as §1

[1] = 100 micromolar inhibitor concentration, 100 is no change
[2] = 100 micromolar inhibitor, 100 = no change

Sequence of PKBa (P31749 whole entry): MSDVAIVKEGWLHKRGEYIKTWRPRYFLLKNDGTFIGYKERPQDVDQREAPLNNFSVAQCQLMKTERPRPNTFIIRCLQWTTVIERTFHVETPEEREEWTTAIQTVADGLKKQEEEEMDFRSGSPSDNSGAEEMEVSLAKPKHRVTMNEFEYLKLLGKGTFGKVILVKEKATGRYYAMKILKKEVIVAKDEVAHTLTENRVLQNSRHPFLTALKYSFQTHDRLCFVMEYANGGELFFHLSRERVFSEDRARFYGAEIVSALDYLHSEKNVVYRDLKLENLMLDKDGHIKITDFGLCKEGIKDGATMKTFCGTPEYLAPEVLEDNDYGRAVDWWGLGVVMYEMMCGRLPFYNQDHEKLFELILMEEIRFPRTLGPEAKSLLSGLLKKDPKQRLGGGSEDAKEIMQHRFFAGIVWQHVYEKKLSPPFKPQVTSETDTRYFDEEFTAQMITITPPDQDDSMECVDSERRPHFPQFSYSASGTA

Structure (SMILES)	residual kinase activity, PKBa (PKBa; [1])	residual kinase activity, PDK1 (PDK1; [1])	residual kinase activity, PLK1 (PLK1; [1])	residual kinase activity, S6K1 (S6K1; [1])	residual kinase activity, PKA (PKA; [1])	residual kinase activity, RSK1 (RSK1; [1])	residual kinase activity, PKCa (PKCa; [1])	residual kinase activity, EPH-A2 (EPH-A2; [1])	residual kinase activity, PRK2 (PRK2; [1])	residual kinase activity, JNK1 (JNK1; [1])	residual kinase activity, RIPK2 (RIPK2; [1])	residual kinase activity, BTK (BTK; [1])	residual kinase activity, IGF-1R (IGF-1R; [1])	residual kinase activity, ROCK 2 (ROCK 2; [1])	residual kinase activity, PIM1 (PIM1; [1])	residual kinase activity, HER4 (HER4; [1])	residual kinase activity, CAMKKb (CAMKKb; [1])	residual kinase activity, AMPK (hum) (AMPK (hum); [1])	other results
N#Cc1ccc2nc(NC(=O)c3ccccc3)sc2c1 [Compound 03-106]	67	106	103	78	91	96	100	89	105	84	78	49	131	125	32	82	67	80	–
COC(=O)c1cccc(C(=O)Nc2nc3cc(OC)ccc3s2)c1 [Compound 03-108]	106	101	96	95	92	70	85	76	100	93	39	68	123	52	95	99	80	101	–
COC(=O)c1cccc(C(=O)Nc2nc3ccc(F)cc3s2)c1 [Compound 03-110]	109	123	108	91	93	70	109	84	85	98	48	77	96	86	99	107	62	69	–
COc1ccc2sc(NC(=O)c3cccc(C(N)=O)c3)nc2c1 [Compound 03-113]	89	101	105	79	101	87	103	96	98	86	99	74	104	68	50	103	70	96	–
COc1ccc2nc(C(=O)Nc3ccccc3)sc2c1 [Compound 13-03]	–	–	–	–	–	–	–	–	–	–	–	–	–	–	–	–	–	–	residual kinase activity, PKBa (PKBa; [2]): 106; residual kinase activity, PDK1 (PDK1; [2]): 113; residual kinase activity, PLK1 (PLK1; [2]): 93; residual kinase activity, S6K1 (S6K1; [2]): 90; residual kinase activity, PKA (PKA; [2]): 97; residual kinase activity, RSK1 (RSK1; [2]): 77; residual kinase activity, PKCa (PKCa; [2]): 119; residual kinase activity, EPH-A2 (EPH-A2; [2]): 63; residual kinase activity, PRK2 (PRK2; [2]): 105; residual kinase activity, JNK1 (JNK1; [2]): 88; residual kinase activity, RIPK2 (RIPK2; [2]): 76; residual kinase activity, BTK (BTK; [2]): 31; residual kinase activity, IGF-1R (IGF-1R; [2]): 104; residual kinase activity, ROCK 2 (ROCK 2; [2]): 70; residual kinase activity, PIM1 (PIM1; [2]): 96; residual kinase activity, HER4 (HER4; [2]): 130; residual kinase activity, CAMKKb (CAMKKb; [2]): 91; residual kinase activity, AMPK (hum) (AMPK (hum); [2]): 99
CC(=O)Nc1nc2ccc([N+](=O)[O-])cc2s1 [Compound 13-10]	–	–	–	–	–	–	–	–	–	–	–	–	–	–	–	–	–	70	remaining activity at 100 µM (PKBa; read-out: residual kinase activity, PKBa): 101%; remaining activity at 100 µM (PDK1; 100 micromolar inhibitor concentration, 100 is no change, read-out: residual kinase activity, PDK1): 93%; remaining activity at 100 µM (PLK1; 100 micromolar inhibitor concentration, 100 is no change, read-out: residual kinase activity, PLK1): 96%; remaining activity at 100 µM (S6K1; 100 micromolar inhibitor concentration, 100 is no change, read-out: residual kinase activity, S6K1): 65%; remaining activity at 100 µM (PKA; 100 micromolar inhibitor concentration, 100 is no change, read-out: residual kinase activity, PKA): 99%; remaining activity at 100 µM (RSK1; 100 micromolar inhibitor concentration, 100 is no change, read-out: residual kinase activity, RSK1): 89%; remaining activity at 100 µM (PKCa; 100 micromolar inhibitor concentration, 100 is no change, read-out: residual kinase activity, PKCa): 93%; remaining activity at 100 µM (EPH-A2; 100 micromolar inhibitor concentration, 100 is no change, read-out: residual kinase activity, EPH-A2): 65%; remaining activity at 100 µM (PRK2; 100 micromolar inhibitor concentration, 100 is no change, read-out: residual kinase activity, PRK2): 93%; remaining activity at 100 µM (JNK1; 100 micromolar inhibitor concentration, 100 is no change, read-out: residual kinase activity, JNK1): 82%; remaining activity at 100 µM (RIPK2; 100 micromolar inhibitor concentration, 100 is no change, read-out: residual kinase activity, RIPK2): 27%; remaining activity at 100 µM (BTK; 100 micromolar inhibitor concentration, 100 is no change, read-out: residual kinase activity, BTK): 96%; remaining activity at 100 µM (IGF-1R; 100 micromolar inhibitor concentration, 100 is no change, read-out: residual kinase activity, IGF-1R): 91%; remaining activity at 100 µM (ROCK 2; 100 micromolar inhibitor concentration, 100 is no change, read-out: residual kinase activity, ROCK 2): 96%; remaining activity at 100 µM (PIM1; 100 micromolar inhibitor concentration, 100 is no change, read-out: residual kinase activity, PIM1): 81%; remaining activity at 100 µM (HER4; 100 micromolar inhibitor concentration, 100 is no change, read-out: residual kinase activity, HER4): 81%; remaining activity at 100 µM (CAMKKb; 100 micromolar inhibitor concentration, 100 is no change, read-out: residual kinase activity, CAMKKb): 73%
